Laboratory results published in US20050119301A1, “Treatment of restenosis” (priority 2001, published 2005).
Entries after “also recorded” stand apart in the source; their conditions may differ. One block for each molecule: values may come before it.

Legend:
JUNK = assay: MAP kinase activity in VSMC, immunoprecipitation analysis; format: cell-based; conditions: human VSMC
Protocol: (§1) To further examine the signalling pathway mediating the effect of this phytoestrogen in VSMC, the effect of Cpd. 7 on mitogen-activated protein (MAP) kinases (Erk, JUNK, p38) was determined by immunoprecipitation analysis and on early growth response genes (Egr-1, Sp-1) by Western blotting. […] 7 in a dose-dependent manner, while JUNK and p38 activity were not affected by either PDGF BB or Cpd. 7, though the cells strongly expressed both proteins as well as Erk. Egr-1 or Sp-1 proteins were not altered by either PDGF-BB or Cpd. 7.

p38 = assay: as above; format: cell-based; conditions: human VSMC
Protocol: as §1

[1] = system: rat isolated aortic rings; assay: Protection against endothelium damage induced by oxidised LDL, acetylcholine dilatation (Protocol 3)
Protocol: Male Sprague-Dawley rats (250±50 g) were gassed with 80% CO2 and 20% O2 until killed. The thoracic aorta was excised and quickly placed in ice-cold Krebs modified solution composed of NaCl […], […] 4.7 mM, MgSO4 7H2O 1.17 mM, NaHCO3 25 mM, KH2PO4 1.18 mM, CaCl2 2.5 mM, glucose 11 mM and EDTA 0.03 mM. It was then trimmed of fat and connective tissue and cut into 2-3 mm wide rings. Each ring was mounted on two parallel stainless steel hooks in a single water-jacketed 3 ml organ bath containing modified Krebs solution maintained at 37° C. and bubbled with 95% O2 plus 5% CO2. The lower hook was attached to a movable support leg and the upper hook to an FTO3 force transducer (Grass Scientific Instruments, Mitutoyo, Japan) for isometric recordings. Changes in force were amplified (Quadbridge amplifier, Scientific Concepts Inc., Victoria, Australia) and recorded on a MacLab 8E data acquisition system (Adinstruments Pty Ltd., NSW, Australia) linked to an Apple computer (Apple Computer Inc, Cupertina, Calif.). Rings were set at an initial tension of 2 g and allowed to equilibrate for 30 minutes after which time they were re-set to 2 g tension before the commencement of each experimental protocol.
Full concentration response curves to phenylephrine were constructed from which the concentration giving a submaximal contraction of approximately 80% was selected (usually 0.3 μM). Tissues were then constricted with phenylephrine at the selected concentration and allowed to plateau. Full concentration dilatory curves were then constructed to acetylcholine. […]
Human plasma was obtained from the blood bank. […] The protein content of the final LDL fraction obtained was determined by the simplified protein assay method of Lowry. […]
Contractile responses are expressed in g tension (mean+standard error of the mean). Dilatory responses are expressed as a percentage of the contractile force generated by the pre-constricting agent used. […]

[2] = system: Human umbilical vein endothelial cells; assay: Endothelial cell migration (wound) assay; format: cell-based; design: dose or concentration left out as unconfirmed; conditions: after 30 hours
Protocol: Human umbilical vein endothelial cells between passage 1 and 3 were used. They were grown in gelatin coated flasks in medium 199 with Earle's Salts supplemented with 20% foetal calf serum, 25 mg/ml endothelial cell growth supplement and 25 mg/ml heparin.
5×10^5 cells per well in growth medium were plated onto fibronectin coated 6 well trays and grown to confluence. A wound was produced along the monolayer with the use of a cell scraper (Costar). The cells were then washed once and fresh medium with the test compounds was added. Defined points along the wound were marked using an ink condenser (Olympus microscopes) allowing the movement of cells to be visualized at constant points over the next 48 hours. Photographs were taken at relevant times and the degree of cell movement from the wound front assessed.

JUNK activity (JUNK): not affected
p38 activity (p38): not affected
Compound: Oc1ccc(C2COc3cc(O)ccc3C2O)cc1 (centres unmarked) [Cpd. 7]

Compound: Oc1ccc(C2COc3cc(O)ccc3C2O)cc1 (centres unmarked) [Cpd. 8]
potency of protective effect against ox-LDL relative to 17β-estradiol [1]: at least 10 times
protective effect against ox-LDL inhibition of acetylcholine dilatation (in words) ([1]; ox-LDL 0.3 mg protein/ml, β-estradiol 10 pg/ml, Cpd. 5 300 ng/ml, Cpd. 7 1 μg/ml, Cpd. 8 and 12 3 μg/ml): diminished the inhibitory effect of ox-LDL; also recorded: significantly protects against endothelium damage by oxidized LDL

Compound: Oc1ccc(C2=Cc3ccc(O)cc3OC2)cc1 [Cpd. 12]
endothelial cell migration towards the wound [2]: markedly inhibited endothelial cell migration
